Test results published in patent US7144866B2, “Avermectin derivatives” (The Kitasato Institute, priority 2000, dated 2006).

Experiments:
Caenorhabditis elegans = test: Antiparasitic activity against Caenorhabditis elegans in a 96 well microplate, movement graded 0 to 3, MIC; assay type: cell-based; conditions: concentration required to give Indication 2 (or 3) for caenorhabditis elegans; incubated at 20° C., observed after 24 and 48 hours
Text: (§1) Methods for determining antiparasitic effects of the compounds disclosed by the present invention are explained below.
(§2) As model insects for simple determination of antiparasitic and insecticidal activities, those insects are desired which can be easily obtained and bred in laboratories, and have no pathogenicity to a human. Caenorhabditis elegans, an unparasitic eelworm widely used in experiments of genetics, was used as a typical steam worm, and artemia salina used as feed for tropical fish and named Brine shrimp, was used instead of insects. […]
(§3) Each well of a 96 well microplate was filled with the solution of the test compound (methanol as a solvent), and the solvent was removed using a vacuum pump, then 250 μl of the assay medium was added to each wells (the assay medium was prepared by dissolving 7.5 mM sodium hydrogencarbonate, 7.5 mM potassium chloride, 7.5 mM calcium chloride dihydrate and 7.5 mM magnesium sulfate heptahydrate in distilled water and adding 0.01% of lecithin to the solution), and then the microplate was shaken using a microplate mixer for 15 minutes. […] The results were compared to those obtained without addition of the test compound, and evaluated by 4 grades. […]

artemia salina = test: Insecticidal model activity against artemia salina (Brine shrimp) larvae in a 96 well microplate, movement graded 0 to 3, MIC; assay type: cell-based; conditions: concentration required to give Indication 2 (or 3) for artemia salina; incubated at 20° C., observed after 24 and 48 hours
Text: as §1, §2, §3

CCC(C)C1O[C@]2(C=C[C@@H]1C)C[C@@H]1CC(C/C=C(\C)[C@@H](OC3C[C@H](OC)[C@@H](OC4C[C@H](OC)[C@@H](O)[C@H](C)O4)[C@H](C)O3)[C@@H](C)/C=C/C=C3\COC4[C@H](O)C(C)=CC(C(=O)O1)[C@]34O)O2 (some centres unmarked) [B1a*, avermectin B1a]
C.E. minimum inhibitory concentration (MIC) (Caenorhabditis elegans): 2 ng/mL | A.S. minimum inhibitory concentration (MIC) (artemia salina): 0.5 ng/mL
